One assay deals with Nonstructural protein 1 (Influenza A virus, UniProt Q194T2). The assay is classed as functional, Influenza A virus (A/California/07/2009(H1N1)).
The next assay addresses T1, Hexokinase HKDC1 (Homo sapiens, UniProt Q2TB90).
T1 sequence (Q2TB90 whole entry): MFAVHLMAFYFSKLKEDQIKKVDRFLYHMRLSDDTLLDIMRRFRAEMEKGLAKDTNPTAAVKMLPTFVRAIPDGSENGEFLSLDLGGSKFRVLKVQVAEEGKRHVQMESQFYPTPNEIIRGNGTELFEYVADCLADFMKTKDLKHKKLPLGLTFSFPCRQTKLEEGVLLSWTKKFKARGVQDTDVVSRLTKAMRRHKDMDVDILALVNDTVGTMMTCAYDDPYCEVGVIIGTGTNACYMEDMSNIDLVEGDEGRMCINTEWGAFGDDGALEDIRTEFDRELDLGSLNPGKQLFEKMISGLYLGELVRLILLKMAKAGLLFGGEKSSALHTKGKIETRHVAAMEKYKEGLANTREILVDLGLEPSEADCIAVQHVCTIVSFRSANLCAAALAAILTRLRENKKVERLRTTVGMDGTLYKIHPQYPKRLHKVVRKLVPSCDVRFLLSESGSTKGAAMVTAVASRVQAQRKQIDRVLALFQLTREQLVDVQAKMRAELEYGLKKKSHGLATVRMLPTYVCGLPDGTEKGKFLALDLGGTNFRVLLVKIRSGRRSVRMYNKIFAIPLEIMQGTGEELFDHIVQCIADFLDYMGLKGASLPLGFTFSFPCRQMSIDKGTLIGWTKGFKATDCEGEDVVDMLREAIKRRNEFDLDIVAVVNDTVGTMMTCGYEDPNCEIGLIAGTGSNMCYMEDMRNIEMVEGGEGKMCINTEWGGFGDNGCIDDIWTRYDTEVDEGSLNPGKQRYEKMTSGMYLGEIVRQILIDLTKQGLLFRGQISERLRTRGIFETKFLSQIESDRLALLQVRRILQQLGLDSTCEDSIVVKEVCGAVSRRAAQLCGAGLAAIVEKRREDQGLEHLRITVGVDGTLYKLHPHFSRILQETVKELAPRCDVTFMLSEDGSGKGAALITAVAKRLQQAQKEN
Kind of assay: HKDC1 hexokinase activators, dose response, biochemical, W721R variant (AID 504730). The assay is classed as functional.

The next assay has as its target T2, Hexokinase-1 (Homo sapiens, UniProt P19367).
T2 sequence (P19367 whole entry): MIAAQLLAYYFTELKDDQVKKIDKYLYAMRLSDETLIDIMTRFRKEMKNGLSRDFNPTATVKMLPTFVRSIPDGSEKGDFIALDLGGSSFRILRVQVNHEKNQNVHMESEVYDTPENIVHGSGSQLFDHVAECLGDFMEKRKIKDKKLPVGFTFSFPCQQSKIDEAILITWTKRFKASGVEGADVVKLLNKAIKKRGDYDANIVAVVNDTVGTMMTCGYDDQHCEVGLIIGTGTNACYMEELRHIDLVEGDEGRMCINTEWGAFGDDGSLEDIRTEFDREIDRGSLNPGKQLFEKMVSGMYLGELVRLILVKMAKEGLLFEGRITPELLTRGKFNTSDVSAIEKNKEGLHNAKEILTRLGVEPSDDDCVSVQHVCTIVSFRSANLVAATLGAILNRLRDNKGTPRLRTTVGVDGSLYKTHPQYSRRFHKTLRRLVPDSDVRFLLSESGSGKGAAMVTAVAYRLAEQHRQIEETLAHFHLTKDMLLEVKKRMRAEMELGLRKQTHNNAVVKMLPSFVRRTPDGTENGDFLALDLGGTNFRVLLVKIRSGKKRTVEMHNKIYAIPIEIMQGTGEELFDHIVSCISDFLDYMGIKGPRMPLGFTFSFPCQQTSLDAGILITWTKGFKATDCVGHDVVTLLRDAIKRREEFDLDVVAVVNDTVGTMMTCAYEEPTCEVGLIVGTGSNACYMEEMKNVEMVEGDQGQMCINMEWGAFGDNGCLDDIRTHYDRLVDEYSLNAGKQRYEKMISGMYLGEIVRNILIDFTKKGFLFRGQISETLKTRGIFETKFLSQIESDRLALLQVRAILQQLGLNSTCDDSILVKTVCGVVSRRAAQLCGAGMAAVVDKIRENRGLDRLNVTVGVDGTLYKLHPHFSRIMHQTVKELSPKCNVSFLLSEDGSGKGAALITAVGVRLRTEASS
Kind of assay: hexokinase 1 activators, dose response, selectivity assay for HKDC1 activator project, biochemical (AID 504762). The assay is classed as functional.

Assay [1] concerns the target T3, Alkaline phosphatase, tissue-nonspecific isozyme (Homo sapiens, UniProt P05186).
T3 sequence (P05186 whole entry): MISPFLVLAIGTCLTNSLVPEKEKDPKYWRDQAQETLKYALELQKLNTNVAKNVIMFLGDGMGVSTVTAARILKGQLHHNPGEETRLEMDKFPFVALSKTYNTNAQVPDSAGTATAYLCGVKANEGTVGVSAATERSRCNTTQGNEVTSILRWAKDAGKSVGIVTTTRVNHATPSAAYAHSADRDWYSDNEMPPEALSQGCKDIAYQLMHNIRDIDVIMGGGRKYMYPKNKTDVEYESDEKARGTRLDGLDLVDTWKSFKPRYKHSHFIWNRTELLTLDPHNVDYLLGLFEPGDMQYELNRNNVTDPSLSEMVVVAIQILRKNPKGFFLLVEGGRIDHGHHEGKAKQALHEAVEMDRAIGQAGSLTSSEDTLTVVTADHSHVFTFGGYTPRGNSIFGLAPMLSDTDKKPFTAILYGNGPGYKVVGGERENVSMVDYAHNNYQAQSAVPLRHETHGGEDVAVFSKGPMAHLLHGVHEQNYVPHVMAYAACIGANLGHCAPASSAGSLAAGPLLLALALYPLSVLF
Kind of assay: human TNAP enzyme inhibitors, SAR follow-up, biochemical, luminescent, dose response (AID 1056).

The test system of assay [2] is Streptococcus sp. 'group A'. Briefly: growth inhibition of control SK(-) GAS strain, dose response, counter-screen for streptokinase expression inhibitor project, luminescence, kanamycin, BacTiterGlo, confirmation (AID 1900). The assay is classed as functional, organism-based. On the technique in general: The purpose of a counterscreen is to sort out artefacts and off-target activity.

The target of the next assay is T4, Streptokinase A (Streptococcus pyogenes serotype M1, UniProt P10520).
T4 sequence (P10520 whole entry): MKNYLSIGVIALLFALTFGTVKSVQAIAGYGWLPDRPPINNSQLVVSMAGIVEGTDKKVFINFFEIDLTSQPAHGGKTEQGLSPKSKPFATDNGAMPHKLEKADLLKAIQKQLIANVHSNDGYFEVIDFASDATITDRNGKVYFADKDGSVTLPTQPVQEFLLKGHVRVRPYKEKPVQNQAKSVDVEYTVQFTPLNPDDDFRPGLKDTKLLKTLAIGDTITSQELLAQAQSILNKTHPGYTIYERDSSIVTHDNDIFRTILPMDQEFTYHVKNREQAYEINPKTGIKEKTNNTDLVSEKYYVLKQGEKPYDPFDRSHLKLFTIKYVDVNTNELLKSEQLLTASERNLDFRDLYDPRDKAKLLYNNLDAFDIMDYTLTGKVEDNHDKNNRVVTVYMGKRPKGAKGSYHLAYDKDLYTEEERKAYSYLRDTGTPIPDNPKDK
Briefly: S. pyogenes streptokinase expression inhibitors, potency, dose response, plasminogen activation absorbance, OD405 (AID 1914).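 Note: secreted streptokinase activity via plasminogen activation per viability signal from cell pellet.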 The assay is classed as functional, Streptococcus pyogenes M1 GAS.

Assay [3] deals with G-protein coupled receptor 55 (Homo sapiens, UniProt Q9Y2T6). Briefly: GPR55 antagonists blocking LPI-driven arrestin recruitment, primary screen, imaging, U2OS, beta-arrestin-GFP, LPI agonist (AID 2013).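 Note: antagonist potency measured as reduced agonist-driven arrestin aggregation.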 The assay is classed as functional. A general note: Recruitment of arrestin is a read-out of receptor activation apart from second messengers.
G-protein coupled receptor 55, sequence (Q9Y2T6 whole entry): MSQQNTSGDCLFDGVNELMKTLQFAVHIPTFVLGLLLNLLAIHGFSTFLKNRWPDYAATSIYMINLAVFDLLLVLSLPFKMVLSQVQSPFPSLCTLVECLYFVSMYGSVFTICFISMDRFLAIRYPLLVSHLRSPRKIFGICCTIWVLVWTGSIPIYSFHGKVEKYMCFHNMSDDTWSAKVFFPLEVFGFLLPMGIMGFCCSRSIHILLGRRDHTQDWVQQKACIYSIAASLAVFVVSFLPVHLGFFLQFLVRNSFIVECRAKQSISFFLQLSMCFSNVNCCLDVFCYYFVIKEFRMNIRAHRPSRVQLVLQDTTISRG
Another assay concerns Streptococcus. Briefly: Group A Streptococcus viability loss, dose response, counter-screen for streptokinase expression inhibitor project, luminescence, BacTiterGlo (AID 1915).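 Note: potency for reduction of bacterial viability or growth.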 The assay is classed as functional, organism-based.
The target in a further assay is T5, Hexokinase (Trypanosoma brucei, UniProt Q38C41).
T5 sequence (Q38C41 whole entry): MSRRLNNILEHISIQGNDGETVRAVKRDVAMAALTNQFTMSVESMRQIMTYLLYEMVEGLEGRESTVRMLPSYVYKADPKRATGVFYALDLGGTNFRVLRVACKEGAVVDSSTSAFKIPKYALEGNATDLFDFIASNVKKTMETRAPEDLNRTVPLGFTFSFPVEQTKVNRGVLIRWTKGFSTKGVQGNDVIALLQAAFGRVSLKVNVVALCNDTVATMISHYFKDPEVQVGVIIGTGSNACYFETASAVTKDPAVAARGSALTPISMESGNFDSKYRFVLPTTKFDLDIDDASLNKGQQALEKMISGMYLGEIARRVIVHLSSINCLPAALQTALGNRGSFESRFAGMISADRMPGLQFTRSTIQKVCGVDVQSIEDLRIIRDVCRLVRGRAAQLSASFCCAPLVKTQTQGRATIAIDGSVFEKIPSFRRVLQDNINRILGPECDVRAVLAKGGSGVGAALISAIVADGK
Briefly: Confirmation assay for inhibitors of Trypanosoma brucei hexokinase 1-Analogue-first series. [Related pubchem assays (depositor defined):AID1430, AID1632, AID2516, AID2560, AID2579, AID2600, AID449725, AID492951]. The assay is classed as functional.

The nature of another assay: cells. The assay is classed as functional.
Assay [4] in a line: Vero E6 cell cytotoxicity, dose response, cytotoxicity control for non-replicating M. tuberculosis project, secondary assay (AID 492998). The assay is classed as functional, VeroE6. The conditions noted are these: Vero C1008.
Assay [5] can be described thus: HepG2 cell cytotoxicity, dose response, cytotoxicity control for non-replicating M. tuberculosis project (AID 489018). The assay is classed as functional. The conditions noted are these: Mycobacterium tuberculosis.
The nature of assay [6]: THP-1 cell cytotoxicity, dose response, cytotoxicity control for non-replicating M. tuberculosis project (AID 489025). The assay is classed as functional.
A further assay concerns H9c2. Briefly: cells. The assay is classed as functional, cell-based. The settings on record: Rattus norvegicus, H9c2, Myocardium.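 Note: confirmatory concentration-response retest of ultra-high-throughput screening hits for modulation of myocardial damage; cell death induced by hydrogen peroxide oxidative stress; compound pretreatment for 60 min then peroxide exposure for 2 h; potency is for protecting the cells against peroxide damage rather than for killing them.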
A short description of assay [7]: inhibitors of intracellular T. cruzi replication, confirmation, NIH3T3 host cells, beta-gal luminescence (AID 2044).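 Note: intracellular parasites grown in NIH/3T3 mouse fibroblasts as host cells; luminescent beta-galactosidase reporter signal from transgenic T. cruzi replicating inside host cells; inhibitors lower the luminescence signal.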 The assay is classed as functional, cell-based.
A short description of assay [8]: cytotoxicity toward NIH3T3 fibroblasts, dose response, counter-screen, cell-based, ATP luminescence, mouse fibroblasts (AID 2010).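 Note: cells exposed to compound for about 90 hours before reading.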 The assay is classed as functional.
The target in assay [9] is Heat shock protein HSP 90-alpha (Homo sapiens, UniProt P07900). The assay is classed as functional, organism-based.
A short description of assay [10]: Luminescence Cell-Based Dose Response HTS to Identify Inhibitors of 5'UTR Stem-Loop Driven Prion Protein mRNA Translation in H4 Neuroglioblastoma Cells. [Related pubchem assays: 1827 (Project Summary), 1813 (Primary HTS)]. The assay is classed as functional.
Assay [11] is described as follows: inhibitors of firefly luciferase expression or activity, dose response, H4 neuroglioma cells, luminescence (AID 1990). The assay is classed as functional, cell-based.
Assay [12] in a line: inhibitors of SNCA 5'UTR-driven reporter translation, confirmation, H4 neuroglioma cells, luminescence (AID 1988). The assay is classed as functional, cell-based.

These results are taken from ChEMBL document CHEMBL1201862, “PubChem BioAssay data set” (2004).

Each structure is given as a SMILES string. Activity calls are given as the source filed them.

Nonstructural protein 1, sequence (Q194T2 whole entry): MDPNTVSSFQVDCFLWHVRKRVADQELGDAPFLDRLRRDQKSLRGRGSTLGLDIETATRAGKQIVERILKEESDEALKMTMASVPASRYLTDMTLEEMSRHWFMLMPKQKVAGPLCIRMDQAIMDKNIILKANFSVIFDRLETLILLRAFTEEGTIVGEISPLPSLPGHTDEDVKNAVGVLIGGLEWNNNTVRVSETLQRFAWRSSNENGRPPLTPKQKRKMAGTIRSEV

Regarding `S=C(NCc1ccccn1)NN=Cc1ccccn1`, the 50% inhibitory concentration (IC50) (usually the concentration needed to halve the response being measured) at Nonstructural protein 1 was 3.89 µM (active). For the same molecule, the EC50 (usually the concentration at which the effect is half-maximal) at Hexokinase HKDC1 is 27.8 µM (inactive); at Hexokinase-1, > 80 µM (inactive).
On to `Nn1cnnc1N/N=C/c1cc(Br)cc(Br)c1O`, for which the half-inhibitory concentration (IC50) on Nonstructural protein 1 was 10.7 µM (active). For the same molecule, the EC50 was > 80 µM (inactive) on Hexokinase HKDC1 and 42.3 µM (inactive) at Hexokinase-1.
On to `COc1cc(C(=O)CSc2nc(C)cc(C)n2)ccc1O`, for which, in assay [1], the IC50 was > 100 µM (inactive).
Take `COc1ccc(C(=O)NC(=S)N(Cc2ccccc2)Cc2ccccc2)cc1`: the values for the EC50 (in assay [2]; on Streptokinase A; with Streptococcus) were 0.883 µM (active), > 150 µM (not active) and 14.5 µM (active), respectively. Moreover, in assay [3], the IC50 was 4.36 µM (active).
On to `Nc1ccc(N2CCCCC2)c(S(=O)(=O)Nc2ccccc2Cl)c1`, for which the IC50 in [3] is 3.53 µM (active).
For `COc1cccc(NC(=O)Cn2sc3ccccc3c2=O)c1`, the IC50 at Hexokinase is 5.03 µM (active).
As for `O=C(Nc1nnc(-c2ccco2)o1)c1ccc([N+](=O)[O-])s1`, in “cells”, the half-inhibitory concentration (IC50) was 9.81 µM (active). Moreover, the CC50 (usually the concentration at which the toxic effect on the cells reaches its halfway point) in assay [4] was 11.6 µM (active); in [5], > 20 µM (active); in assay [6], 17.4 µM (active).
Regarding `CCCn1c(NC(=O)c2ccccc2)nc2ccccc21`, the IC50 was > 79 µM (inactive) in the assay with H9c2 and 1.75 µM (active) in “cells”. In addition, the concentration giving a half-maximal response (EC50) is 2.56 µM (active) in assay [2], > 150 µM (not active) on Streptokinase A and > 150 µM (not active) in the assay on Streptococcus. In addition, the values for the CC50 in assay [4], in assay [5] and in assay [6] were > 20 µM (active), > 20 µM (active) and 35.9 µM (active), respectively.
On to `O=C(NC12CC3CC(CC(C3)C1)C2)c1ccc(-c2ccc(Cl)cc2)o1`, for which the EC50 in assay [7] is 2.11 µM (active); in [8], > 60 µM (not active). In addition, the IC50 in assay [3] is 0.598 µM (active).
On to `CC(C(=O)Nc1ccccc1)n1sc2ccccc2c1=O` (stereo not given), for which the IC50 at Hexokinase is 8.14 µM (active).
As for `O=C(Nc1cc(Cl)ccc1C(=O)O)c1ccc(Cl)cc1`, on Hexokinase, the IC50 is > 25 µM (inactive).
Turning to `CC(C)Cn1c(=O)c(C(=O)Nc2ccncc2)c(O)c2ccccc21`, in “cells”, the half-inhibitory concentration (IC50) is 16.9 µM (active). The EC50 in [2] was 5.54 µM (active); in [10], > 120 µM (not active); in [11], > 120 µM (not active); in [12], 10.9 µM (active); with Streptococcus it was 7.31 µM (active). For the same molecule, the AC50 (commonly the midpoint of the concentration-response curve, whichever way the signal moves) in assay [9] was 6.7 µM (active). In addition, the CC50 is 16.5 µM (active) in assay [4], 19.1 µM (active) in [5] and 12.4 µM (active) in assay [6].
